Test results: patent publication US20240109903A1, “SUBSTITUTED HETEROCYCLES FOR TREATING CANCER” (Northwestern University, priority 2022, published 2024)

Experiments:
[1] = tested on: SK-MEL-28; assay: NCI 60 five-dose screen SK-MEL-28; type: cell-based; conditions: Homo sapiens, five-dose; for CC50: read-out: LC50 (the source's name) (converted)
[2] = tested on: 786-0; assay: NCI 60 five-dose screen 786-0; type: cell-based; conditions: Homo sapiens, five-dose; for CC50: read-out: LC50 (the source's name) (converted)
[3] = tested on: SNB-19; assay: NCI 60 five-dose screen SNB-19; type: cell-based; conditions: Homo sapiens, five-dose; for CC50: read-out: LC50 (the source's name) (converted)
[4] = tested on: HCC-2998; assay: NCI 60 five-dose screen HCC-2998; type: cell-based; conditions: Homo sapiens, five-dose; for CC50: read-out: LC50 (the source's name) (converted)
[5] = tested on: UO-31; assay: NCI 60 five-dose screen UO-31; type: cell-based; conditions: Homo sapiens, five-dose; for CC50: read-out: LC50 (the source's name) (converted)
[6] = tested on: MOLT-4; assay: NCI 60 five-dose screen MOLT-4; type: cell-based; conditions: Homo sapiens, five-dose; for CC50: read-out: LC50 (the source's name)
[7] = tested on: UACC-62; assay: NCI 60 five-dose screen UACC-62; type: cell-based; conditions: Homo sapiens, five-dose; for CC50: read-out: LC50 (the source's name) (converted)
[8] = tested on: full NCI 60 cell panel; assay: NCI 60 Cell One-dose screen; type: cell-based, human; conditions: single high dose 10^−5 M, NCI 60 panel
From the text: Compounds were submitted to the NCI 60 Cell screen and tested at a single high dose (10^−5 M) in the full NCI 60 cell panel (see the following reference for details of using NCI 60 human tumor cell lines for screening anticancer drugs: Shoemaker R H. The NCI60 human tumor cell line anticancer drug screen. Nature Rev Cancer 2006; 6: 813-23). The One-dose data is reported as a mean graph of the percent growth of treated cells. The number reported for the One-dose assay is growth relative to the no-drug control, and relative to the time zero number of cells. This allows detection of both growth inhibition (values between 0 and 100) and lethality (values less than 0). For example, a value of 100 means no growth inhibition. A value of 40 would mean 60% growth inhibition. A value of 0 means no net growth over the course of the experiment. A value of −40 would mean 40% lethality. A value of −100 means all cells are dead. FIGS. 1-8 show the mean graph of percent growth against the NCI-60 cell panel for NUCC-0226674, NUCC-0226679, NUCC-0226680, NUCC-0226683, NUCC-0226689, NUCC-0226694, NUCC-0226695, and NUCC-0226698.

[9] = tested on: LOX IMVI; assay: NCI 60 five-dose screen LOX IMVI; type: cell-based; conditions: Homo sapiens, five-dose; for CC50: read-out: LC50 (the source's name) (converted)
[10] = tested on: SNB-75; assay: NCI 60 five-dose screen SNB-75; type: cell-based; conditions: Homo sapiens, five-dose; for CC50: read-out: LC50 (the source's name) (converted)
[11] = tested on: NCI-H460; assay: NCI 60 five-dose screen NCI-H460; type: cell-based; conditions: Homo sapiens, five-dose; for CC50: read-out: LC50 (the source's name) (converted)
[12] = tested on: RXF 393; assay: NCI 60 five-dose screen RXF 393; type: cell-based; conditions: Homo sapiens, five-dose; for CC50: read-out: LC50 (the source's name) (converted)
[13] = tested on: SN12C; assay: NCI 60 five-dose screen SN12C; type: cell-based; conditions: Homo sapiens, five-dose; for CC50: read-out: LC50 (the source's name) (converted)
[14] = tested on: MDA-MB-231/ATCC; assay: NCI 60 five-dose screen MDA-MB-231/ATCC; type: cell-based; conditions: Homo sapiens, five-dose; for CC50: read-out: LC50 (the source's name) (converted)
[15] = tested on: SF-539; assay: NCI 60 five-dose screen SF-539; type: cell-based; conditions: Homo sapiens, five-dose; for CC50: read-out: LC50 (the source's name) (converted)
[16] = tested on: A549/ATCC; assay: NCI 60 five-dose screen A549/ATCC; type: cell-based; conditions: Homo sapiens, five-dose; for CC50: read-out: LC50 (the source's name) (converted)
[17] = tested on: COLO 205; assay: NCI 60 five-dose screen COLO 205; type: cell-based; conditions: Homo sapiens, five-dose; for CC50: read-out: LC50 (the source's name) (converted)
[18] = tested on: U251; assay: NCI 60 five-dose screen U251; type: cell-based; conditions: Homo sapiens, U-251, five-dose; for CC50: read-out: LC50 (the source's name) (converted)
[19] = tested on: UACC-257; assay: NCI 60 five-dose screen UACC-257; type: cell-based; conditions: Homo sapiens, five-dose; for CC50: read-out: LC50 (the source's name) (converted)
[20] = tested on: HOP-62; assay: NCI 60 five-dose screen HOP-62; type: cell-based; conditions: Homo sapiens, five-dose; for CC50: read-out: LC50 (the source's name) (converted)
[21] = tested on: NCI-H226; assay: NCI 60 five-dose screen NCI-H226; type: cell-based; conditions: Homo sapiens, five-dose; for CC50: read-out: LC50 (the source's name) (converted)
[22] = tested on: IGROV1; assay: NCI 60 five-dose screen IGROV1; type: cell-based; conditions: Homo sapiens, IGROV-1, five-dose; for CC50: read-out: LC50 (the source's name) (converted)

Compound: FC(F)(F)c1cc2c(Cl)ncnc2n1CCN1CCCCC1 [NUCC-0226679]
- GI50 [1]: 15.8 µM
- IC50 [1]: 30.2 µM
- IC (TGI) [1]: 38 µM
- CC50 [1]: 89.1 µM
- GI50 [2]: 39.8 µM
- IC50 [2]: 66.1 µM
- IC (TGI) [2]: 100 µM
- CC50 [2]: ≥ 100 µM
- GI50 [3]: 15.1 µM
- IC50 [3]: 28.2 µM
- IC (TGI) [3]: 30.9 µM
- CC50 [3]: 64.6 µM
- GI50 [4]: 4.07 µM
- IC50 [4]: 8.32 µM
- IC (TGI) [4]: 14.5 µM
- CC50 [4]: 40.7 µM
- GI50 [5]: 1.74 µM
- IC50 [5]: 3.31 µM
- IC (TGI) [5]: 3.55 µM
- CC50 [5]: 7.41 µM
- GI50 [6]: 10.5 µM
- IC50 [6]: 25.1 µM
- IC (TGI) [6]: 55 µM
- CC50 [6]: ≥ 100 µM
- GI50 [7]: 12 µM
- IC50 [7]: 22.4 µM
- IC (TGI) [7]: 30.2 µM
- CC50 [7]: 75.9 µM
- growth inhibition in the One-Dose Screen [8]: significant growth inhibition
- GI50 [9]: 1.7 µM
- IC50 [9]: 2.95 µM
- IC (TGI) [9]: 3.09 µM
- CC50 [9]: 5.75 µM
- GI50 [10]: 10.5 µM
- IC50 [10]: 22.9 µM
- IC (TGI) [10]: 22.4 µM
- CC50 [10]: 47.9 µM
- GI50 [11]: 18.2 µM
- IC50 [11]: 26.3 µM
- IC (TGI) [11]: 50.1 µM
- CC50 [11]: ≥ 100 µM
- GI50 [12]: 15.5 µM
- IC50 [12]: 45.7 µM
- IC (TGI) [12]: 40.7 µM
- CC50 [12]: ≥ 100 µM
- GI50 [13]: 19.5 µM
- IC50 [13]: 34.7 µM
- IC (TGI) [13]: 100 µM
- CC50 [13]: ≥ 100 µM
- GI50 [14]: 5.5 µM
- IC50 [14]: 14.5 µM
- IC (TGI) [14]: 19.5 µM
- CC50 [14]: 50.1 µM
- GI50 [15]: 17 µM
- IC50 [15]: 31.6 µM
- IC (TGI) [15]: 36.3 µM
- CC50 [15]: 75.9 µM
- GI50 [16]: 79.4 µM
- IC50 [16]: 100 µM
- IC (TGI) [16]: 100 µM
- CC50 [16]: ≥ 100 µM
- GI50 [17]: 52.5 µM
- IC50 [17]: 100 µM
- IC (TGI) [17]: 100 µM
- CC50 [17]: ≥ 100 µM
- GI50 [18]: 14.1 µM
- IC50 [18]: 22.9 µM
- IC (TGI) [18]: 34.7 µM
- CC50 [18]: 87.1 µM
- GI50 [19]: 11.7 µM
- IC50 [19]: 25.1 µM
- IC (TGI) [19]: 30.2 µM
- CC50 [19]: 77.6 µM
- GI50 [20]: 38 µM
- IC50 [20]: 100 µM
- IC (TGI) [20]: 100 µM
- CC50 [20]: ≥ 100 µM
- GI50 [21]: 60.3 µM
- IC50 [21]: 100 µM
- IC (TGI) [21]: 100 µM
- CC50 [21]: ≥ 100 µM
- GI50 [22]: 2.95 µM
- IC50 [22]: 4.37 µM
- IC (TGI) [22]: 10.2 µM
- CC50 [22]: 38 µM

Compound: OC1CCC(Cn2c(C(F)(F)F)cc3c(Cl)ncnc32)CC1 (centres unmarked) [NUCC-0226689]
- GI50 [1]: 9.33 µM
- IC50 [1]: 19.1 µM
- IC (TGI) [1]: 30.9 µM
- CC50 [1]: ≥ 100 µM
- GI50 [2]: 32.4 µM
- IC50 [2]: 49 µM
- IC (TGI) [2]: 100 µM
- CC50 [2]: ≥ 100 µM
- GI50 [3]: 13.5 µM
- IC50 [3]: 24 µM
- IC (TGI) [3]: 26.9 µM
- CC50 [3]: 53.7 µM
- GI50 [4]: 1.78 µM
- IC50 [4]: 3.24 µM
- IC (TGI) [4]: 3.31 µM
- CC50 [4]: 6.17 µM
- GI50 [5]: 15.1 µM
- IC50 [5]: 38.9 µM
- IC (TGI) [5]: 66.1 µM
- CC50 [5]: ≥ 100 µM
- GI50 [6]: 2.75 µM
- IC50 [6]: 4.47 µM
- IC (TGI) [6]: 8.13 µM
- CC50 [6]: ≥ 100 µM
- GI50 [7]: 5.37 µM
- IC50 [7]: 11.5 µM
- IC (TGI) [7]: 19.5 µM
- CC50 [7]: 51.3 µM
- growth inhibition in the One-Dose Screen [8]: significant growth inhibition
- GI50 [9]: 1.7 µM
- IC50 [9]: 3.02 µM
- IC (TGI) [9]: 3.16 µM
- CC50 [9]: 5.75 µM
- GI50 [10]: 10.7 µM
- IC50 [10]: 23.4 µM
- IC (TGI) [10]: 22.9 µM
- CC50 [10]: 49 µM
- GI50 [11]: 4.79 µM
- IC50 [11]: 5.5 µM
- IC (TGI) [11]: 16.6 µM
- CC50 [11]: 53.7 µM
- GI50 [12]: 12.6 µM
- IC50 [12]: 37.2 µM
- IC (TGI) [12]: 34.7 µM
- CC50 [12]: 97.7 µM
- GI50 [13]: 5.37 µM
- IC50 [13]: 10 µM
- IC (TGI) [13]: 20 µM
- CC50 [13]: 53.7 µM
- GI50 [14]: 4.47 µM
- IC50 [14]: 11 µM
- IC (TGI) [14]: 20 µM
- CC50 [14]: 69.2 µM
- GI50 [15]: 17.8 µM
- IC50 [15]: 32.4 µM
- IC (TGI) [15]: 38.9 µM
- CC50 [15]: 85.1 µM
- GI50 [16]: 30.9 µM
- IC50 [16]: 43.7 µM
- IC (TGI) [16]: 100 µM
- CC50 [16]: ≥ 100 µM
- GI50 [17]: 24.5 µM
- IC50 [17]: 45.7 µM
- IC (TGI) [17]: 100 µM
- CC50 [17]: ≥ 100 µM
- GI50 [18]: 3.24 µM
- IC50 [18]: 4.27 µM
- IC (TGI) [18]: 12.9 µM
- CC50 [18]: 44.7 µM
- GI50 [19]: 3.39 µM
- IC50 [19]: 7.76 µM
- IC (TGI) [19]: 14.1 µM
- CC50 [19]: 56.2 µM
- GI50 [20]: 20 µM
- IC50 [20]: 42.7 µM
- IC (TGI) [20]: 57.5 µM
- CC50 [20]: ≥ 100 µM
- GI50 [21]: 23.4 µM
- IC50 [21]: 100 µM
- IC (TGI) [21]: 79.4 µM
- CC50 [21]: ≥ 100 µM
- GI50 [22]: 1.95 µM
- IC50 [22]: 3.47 µM
- IC (TGI) [22]: 4.07 µM
- CC50 [22]: 8.51 µM
